Data taken from patent US20200377545A1, “NOVEL ANTI-TUMOR COMPOUND AND APPLICATION THEREOF IN PREPARING ANTI-TUMOR DRUGS” (HANGZHOU XINGAO BIOTECHNOLOGY CO., LTD, priority 2018, published 2020).

What was measured:
Assay type in all cases: in vivo
[1] = system: human melanoma cell line A375; test: Mouse subcutaneous transplanted tumor of human melanoma cell line A375; details: once every two days for 20 days, cGAMP 5 mg/kg subcutaneous, oxaliplatin 2 mg/kg oral, platinum complexes 6 mg/kg oral; for Mean tumor weight (g): n = 10, mean ± SD; for Mean tumor inhibition rate (%): vs negative control group
Procedure: (§1) BALB/c ordinary mice, male, 18-20 g in weight, 6-8 weeks old, SPF grade, purchased from Shanghai SLAC Laboratory Animal Co., Ltd.[Laboratory Animal Quality Certificate Number: SCXK (Shanghai) 2007-0005].
(§2) Mice are orally administrated, and [cis-Pt(NH3)2(cGAMP)] and the tetravalent platinum complex cis-[Pt(cGAMP)(NH3)2(Cl)(OH)] are both set to be 6 mg/kg in one dose group.
(§3) Positive control: cGAMP, 5 mg/kg in dose (subcutaneous) oxaliplatin, 2 mg/kg in dose (oral)
(§4) Administration routes: control group: cGAMP, 5 mg/kg in dose (subcutaneous)
(§5) Oxaliplatin, 2 mg/kg in dose (oral);
(§6) Immune activator platinum complex, 6 mg/kg in dose (oral)
(§7) Administration volume: 100 μl/animal; number of times of administration: continuous administration for 20 days, once every two days.
(§8) Mouse colorectal cancer cell line CT26, mouse Lewis lung cancer cell line LL/2, human ovarian cancer cell line SK-OV-3, and human melanoma cell line A375, which all purchased from the Cell Bank of the Chinese Academy of Sciences.
(§9) The 5 groups are administered once every two days for 20 consecutive days. 20 days later, the mice are killed and the tumors are weighed. Tumor inhibition rate=[1−mean tumor weight of experimental group/mean tumor weight of group A)]×100%.
(§10) Data is expressed with x±s, and processed with SPSS10.0 software. The significance of the difference between tumor weights of all groups is compared by a one-way ANOVA test. The significance level a=0.05.

[2] = system: human ovarian cancer cell line SK-OV-3; test: Mouse subcutaneous transplanted tumor of human ovarian cancer cell line SK-OV-3; details: SK-OV-3 tumor, once every two days for 20 days, cGAMP 5 mg/kg subcutaneous, oxaliplatin 2 mg/kg oral, platinum complexes 6 mg/kg oral; for Mean tumor weight (g): n = 10, mean ± SD; for Mean tumor inhibition rate (%): vs negative control group
Procedure: as §1, §2, §3, §4, §5, §6, §7, §8, §9, §10

[3] = system: mouse Lewis lung cancer cell line LL/2; test: Subcutaneous transplanted tumor of mouse Lewis lung cancer cell line LL-2 in mice; details: C57 mouse, LL-2 tumor, once every two days for 20 days, cGAMP 5 mg/kg subcutaneous, oxaliplatin 2 mg/kg oral, platinum complexes 6 mg/kg oral; for Mean tumor weight (g): n = 10, mean ± SD; for Mean tumor inhibition rate (%): vs negative control group
Procedure: as §2, §3, §4, §5, §6, §7, §8, §9, §10

[4] = system: mouse colorectal cancer cell line CT26; test: Subcutaneous transplanted tumor of mouse colorectal cancer cell CT26 in mice; details: for Mean tumor weight (g) / Mean tumor inhibition rate (%): BalB/C mouse, CT26 tumor, once every two days for 20 days, cGAMP 5 mg/kg subcutaneous, oxaliplatin 2 mg/kg oral, platinum complexes 6 mg/kg oral; for Mean tumor weight (g): n = 10, mean ± SD; for Mean tumor inhibition rate (%): vs negative control group; for Inhibition of the growth of subcutaneous transplanted tumors (result in words): summary statement for all four tumor models (Tables 1-4), 20 days after administration, tumor weights significantly lower than negative control (P<0.05, P<0.01)
Procedure: as §1, §2, §3, §4, §5, §6, §7, §8, §9, §10

O=C1[O][Pt]2([NH][C@@H]3CCCC[C@H]3[NH]2)[O]C1=O [Oxaliplatin, oxaliplatin]
Mean tumor weight (g) [1]: 0.989 ± 0.215 (g) | Mean tumor inhibition rate (%) [1]: 62.4% | Mean tumor weight (g) [2]: 0.989 ± 0.215 (g) | Mean tumor inhibition rate (%) [2]: 62.6% | Mean tumor weight (g) [3]: 0.963 ± 0.223 (g) | Mean tumor inhibition rate (%) [3]: 62.4% | Mean tumor weight (g) [4]: 0.963 ± 0.223 (g) | Mean tumor inhibition rate (%) [4]: 57.3% | Inhibition of the growth of subcutaneous transplanted tumors (result in words) [4]: obviously inhibit the growth of tumors

Nc1nc2c(ncn2[C@@H]2O[C@@H]3COP(=O)(O)O[C@H]4[C@@H](O)[C@H](n5cnc6c(N)ncnc65)O[C@@H]4COP(=O)(O)O[C@@H]2[C@@H]3O)c(=O)[nH]1 [cGAMP, Cyclic [G(2′,5′)pA(3′,5′)p]]
Mean tumor weight (g) [1]: 0.969 ± 0.216 (g) | Mean tumor inhibition rate (%) [1]: 63.0% | Mean tumor weight (g) [2]: 0.997 ± 0.212 (g) | Mean tumor inhibition rate (%) [2]: 62.3% | Mean tumor weight (g) [3]: 0.980 ± 0.214 (g) | Mean tumor inhibition rate (%) [3]: 56.6% | Mean tumor weight (g) [4]: 0.840 ± 0.218 (g) | Mean tumor inhibition rate (%) [4]: 62.8% | Inhibition of the growth of subcutaneous transplanted tumors (result in words) [4]: obviously inhibit the growth of tumors

cis-[Pt(cGAMP)(NH3)2(Cl)(OH)] [cGAMP-tetravalent cisplatin]
Mean tumor weight (g) [1]: 0.794 ± 0.224 (g) | Mean tumor inhibition rate (%) [1]: 69.8% | Mean tumor weight (g) [2]: 0.813 ± 0.226 (g) | Mean tumor inhibition rate (%) [2]: 69.3% | Mean tumor weight (g) [3]: 0.784 ± 0.232 (g) | Mean tumor inhibition rate (%) [3]: 69.4% | Mean tumor weight (g) [4]: 0.689 ± 0.224 (g) | Mean tumor inhibition rate (%) [4]: 69.5% | Inhibition of the growth of subcutaneous transplanted tumors (result in words) [4]: obviously inhibit the growth of tumors

cis-[Pt(cGAMP)(NH3)2] [cGAMP-cisplatin]
Mean tumor weight (g) [1]: 0.786 ± 0.218 (g) | Mean tumor inhibition rate (%) [1]: 70.1% | Mean tumor weight (g) [2]: 0.789 ± 0.218 (g) | Mean tumor inhibition rate (%) [2]: 70.2% | Mean tumor weight (g) [3]: 0.758 ± 0.226 (g) | Mean tumor inhibition rate (%) [3]: 70.4% | Mean tumor weight (g) [4]: 0.648 ± 0.216 (g) | Mean tumor inhibition rate (%) [4]: 71.3% | Inhibition of the growth of subcutaneous transplanted tumors (result in words) [4]: obviously inhibit the growth of tumors
